# Results as given in the Bradley open melting point set (2014).
# Several values for one entry are separate records, joined by “and”; a condition that tells them apart may be missing. Identical values can stand only once.
row,Structure (SMILES),melting point
1,"Nc1c(Cl)cc(Cl)cc1Cl [2,4,6-trichloroaniline]",77 °C
2,"Oc1c(F)cc(F)cc1F [2,4,6-trifluorophenol]",50 °C
3,"Oc1c(I)cc(I)cc1I [2,4,6-triiodophenol]",158 °C
4,"COc1cc(OC)c(C=O)c(OC)c1 [2,4,6-trimethoxybenzaldehyde] [listing 1 of 2 here]",121 °C
5,"COc1cc(OC)c(C=O)c(OC)c1 [2,4,6-trimethoxybenzaldehyde] [listing 2 of 2 here]",120 °C
6,"Cc1cc(C)c(C(=O)O)c(C)c1 [2,4,6-trimethylbenzoic acid]",154 °C
7,"C=CCOc1nc(OCC=C)nc(OCC=C)n1 [2,4,6-tris(allyloxy)-1,3,5-triazine]",27 °C
8,"O=[N+]([O-])c1ccc(Oc2ccc(Cl)cc2Cl)cc1 [2,4-Dichloro-1-(4-nitrophenoxy)benzene]",70.5 °C
9,"Nc1ccc(F)cc1F [2,4-Difluoroaniline]",-7.5 °C
10,"O=C=N/c1cc(ccc1C)N=C=O [2,4-Diisocyanato-1-methylbenzene]",20.5 °C
11,"COc1ccc(C=CC(=O)c2ccccc2)c(OC)c1 [2,4-Dimethoxychalcone]",70 °C
12,"O=[N+]([O-])c1ccc(O)c([N+](=O)[O-])c1 [2,4-Dinitrophenol]",108 °C
13,"CC(C)(C)c1ccc(O)c(C(C)(C)C)c1 [2,4-di-tert-butylphenol]",55 °C
14,"Cc1ccc(N)cc1N [2,4-diaminotoluene]",99 °C
15,"Nc1ccc(Br)cc1Br [2,4-dibromoaniline]",80 °C
16,"Nc1ccc(Cl)cc1Cl [2,4-dichloroaniline]",61 °C
17,"NC(=O)c1ccc(Cl)cc1Cl [2,4-dichlorobenzamide]",192 °C
18,"ClCc1ccc(Cl)cc1Cl [2,4-dichlorobenzyl chloride]",-3 °C
19,"O=[N+]([O-])c1ccc(Cl)cc1Cl [2,4-dichloronitrobenzene]",31 °C
20,"Oc1ccc(Cl)cc1Cl [2,4-dichlorophenol]",43 °C and 45 °C and 42.5 °C
21,"NNC(=O)COc1ccc(Cl)cc1Cl [2,4-dichlorophenoxyacetic acid hydrazide]",151 °C
22,"N#CCOc1ccc(Cl)cc1Cl [2,4-dichlorophenoxyacetonitrile]",47 °C
23,"O=C(c1ccccc1)c1ccc(O)cc1O [2,4-dihydroxybenzophenone]",146 °C
24,"COc1ccc(C(C)=O)c(OC)c1 [2,4-dimethoxyacetophenone]",41 °C

row,Structure (SMILES),melting point
1,"Cc1ccc(N)c(C)c1 [2,4-dimethylaniline]",-15 °C
2,"Cc1ccc(B(O)O)c(C)c1 [2,4-dimethylbenzeneboronic acid]",206 °C
3,"O=[N+]([O-])c1cc([N+](=O)[O-])c2ccccc2c1O [2,4-dinitro-1-naphthol]",132 °C
4,"Nc1ccc([N+](=O)[O-])cc1[N+](=O)[O-] [2,4-dinitroaniline]",178 °C
5,"O=[N+]([O-])c1ccc(O)c([N+](=O)[O-])c1 [2,4-dinitrophenol]",108 °C
6,"CC1=CC=C(C)C2=C(C)C=CC(C)=C1C2 [2,5,7,10-tetramethylbicyclo[4.4.1]undeca-1,3,5,7,9-pentaene]",72 °C
7,"Cc1cc(Br)c(C)cc1Br [2,5-Dibromo-p-xylene]",74 °C
8,"Cc1cc(Cl)c(C)cc1Cl [2,5-Dichloro-p-xylene]",70 °C
9,"Cc1ccc(C)c(N)c1 [2,5-Xylidine]",15.5 °C
10,"Cc1cc(Br)c(C)cc1Br [2,5-dibromo-p-xylene]",73 °C
11,"Cc1cc(Br)ccc1Br [2,5-dibromotoluene]",6 °C
12,"O=C(O)c1cc(Cl)ccc1Cl [2,5-dichlorobenzoic acid]",153 °C
13,"O=C(O)c1cc(Cl)ccc1Cl [2,5-dichlorobenzoic_acid]",156 °C
14,"OB(O)c1cc(Cl)cnc1Cl [2,5-dichloropyridine-3-boronic acid]",154 °C
15,"Clc1ccc(Cl)nc1 [2,5-dichloropyridine]",61 °C
16,"NC(=O)c1cc(F)ccc1F [2,5-difluorobenzamide]",112 °C
17,"O=Cc1cc(O)ccc1O [2,5-dihydroxybenzaldehyde]",99 °C
18,"O=C(O)Cc1cc(O)ccc1O [2,5-dihydroxyphenylacetic_acid]",127 °C
19,"COc1ccc(OC)c(C=O)c1 [2,5-dimethoxybenzaldehyde]",52 °C
20,"COc1ccc(OC)c(S(=O)(=O)Cl)c1 [2,5-dimethoxybenzenesulfonyl chloride]",114 °C
21,"C=C(C)CCC(=C)C [2,5-dimethyl-1,5-hexadiene]",-75 °C
22,"C/C(C)=CC=C(/C)C [2,5-dimethyl-2,4-hexadiene]",13 °C
23,"Cc1ccc(C)o1 [2,5-dimethylfuran]",-62 °C
24,"Cc1cc2[nH]c(C)cc(=O)n2n1 [2,5-dimethylpyrazolo[1,5-a]pyrimidin-7(4h)-one]",253 °C

row,Structure (SMILES),melting point
1,"CC(=O)CCC(C)=O [2,5-hexanedione]",-6 °C
2,"Oc1c(Cl)cccc1Cl [2,6-Dichlorophenol]",68.5 °C
3,"OB(O)c1c(C(F)(F)F)cccc1C(F)(F)F [2,6-bis(trifluoromethyl)benzeneboronic acid]",150 °C
4,"Nc1c(Br)cccc1Br [2,6-dibromoaniline]",80 °C
5,"Cc1cc(Cl)nc(Cl)c1C#N [2,6-dichloro-3-cyano-4-methylpyridine]",110 °C
6,"O=[N+]([O-])c1cc(Cl)[n+]([O-])c(Cl)c1 [2,6-dichloro-4-nitropyridine n-oxide]",178 °C
7,"Nc1c(Cl)cccc1Cl [2,6-dichloroaniline]",40 °C
8,"COc1c(Cl)cccc1Cl [2,6-dichloroanisole]",10 °C
9,"NC(=O)c1c(Cl)cccc1Cl [2,6-dichlorobenzamide]",199 °C
10,"N#Cc1c(Cl)cccc1Cl [2,6-dichlorobenzonitrile]",145 °C
11,"O=C(Cl)c1c(Cl)cccc1Cl [2,6-dichlorobenzoyl chloride]",17 °C
12,"Oc1c(Cl)cccc1Cl [2,6-dichlorophenol] [listing 1 of 2 here]",67 °C and 68.5 °C and 65 °C (2×)
13,"Oc1c(Cl)cccc1Cl [2,6-dichlorophenol] [listing 2 of 2 here]",67 °C
14,"N#Cc1c(F)ccc([N+](=O)[O-])c1F [2,6-difluoro-3-nitrobenzonitrile]",53 °C
15,"NS(=O)(=O)c1c(F)cccc1F [2,6-difluorobenzenesulfonamide]",190 °C
16,"O=C(O)Cc1c(F)cccc1F [2,6-difluorophenylacetic acid]",101 °C
17,"Oc1ccc2cc(O)ccc2c1 [2,6-dihydroxynaphthalene]",224 °C
18,"COc1cccc(OC)c1B(O)O [2,6-dimethoxybenzeneboronic acid]",107 °C
19,"COc1cccc(OC)c1CN [2,6-dimethoxybenzylamine]",85 °C
20,"COc1cccc(OC)c1OCC(=O)O [2,6-dimethoxyphenoxyacetic acid]",81 °C
21,"Cc1cc(I)cc(C)c1O [2,6-dimethyl-4-iodophenol]",97 °C
22,"Cc1cc(=O)cc(C)o1 [2,6-dimethyl-4-pyrone]",134 °C
23,"Cc1cccc(C)c1N [2,6-dimethylaniline]",12 °C
24,N#Cc1ccccc1N1CCCCC1 [2-(1-piperidinyl)benzonitrile],43 °C

row,Structure (SMILES),melting point
1,"O=C1c2ccccc2C(=O)N1c1nc2ccccc2[nH]1 [2-(1H-Benzimidazol-2-yl)-1H-isoindole-1,3(2H)-dione]",274 °C
2,Nc1ccccc1C1C=c2ccccc2=N1 (stereo unspecified) [2-(1H-Indol-2-yl)anilin],153 °C
3,"CC(Oc1cc(Cl)c(Cl)cc1Cl)C(=O)O (stereo unspecified) [2-(2,4,5-Trichlorophenoxy)propanoic acid]",176 °C
4,"O=[N+]([O-])c1ccc(Cc2ccccn2)c([N+](=O)[O-])c1 [2-(2,4-Dinitrobenzyl)pyridine]",92 °C
5,Oc1ccccc1-c1nc2ccccc2s1 [2-(2-hydroxyphenyl)benzothiazole],132 °C
6,c1ccc2cc(C3CNCCN3)ccc2c1 (stereo unspecified) [2-(2-naphthyl)piperazine],102 °C
7,c1csc(C2CNCCN2)c1 (stereo unspecified) [2-(2-thienyl)piperazine],83 °C
8,CC(Oc1cccc(Cl)c1)C(=O)O (stereo unspecified) [2-(3-chlorophenoxy)propionic acid],115 °C
9,Cc1ccc(-n2ncccc2=O)cc1 [2-(4-Methylphenyl)pyridazin-3(2H)-one],97.8 °C
10,"Nc1ccc(C(O)(C(F)(F)F)C(F)(F)F)cc1 [2-(4-aminophenyl)-1,1,1,3,3,3-hexafluoro-2-propanol]",150 °C
11,NCCc1ccc(-c2ccccc2)cc1 [2-(4-biphenylyl)ethylamine],52 °C
12,CC(C)(Oc1ccc(Cl)cc1)C(=O)O [2-(4-chlorophenoxy)isobutyric acid],120 °C
13,O=C(O)c1cccnc1Oc1ccc(F)cc1 [2-(4-fluorophenoxy)nicotinic acid],184 °C
14,O=C(O)c1ccccc1/N=N/c1ccc(O)cc1 [2-(4-hydroxyphenyl-azo)benzoic acid],206 °C
15,Cc1ccc(C(=O)c2ccccc2C(=O)O)cc1 [2-(4-methylbenzoyl)benzoic acid],140 °C
16,Nc1cc(C(F)(F)F)ccc1N1CCOCC1 [2-(4-morpholinyl)-5-(trifluoromethyl)aniline],127 °C
17,Cc1ccc(C(=O)c2ccccc2C(=O)O)cc1 [2-(4-toluoyl)benzoic acid],138 °C
18,Cc1ccc(O)c(-c2ccno2)c1 [2-(5-isoxazolyl)-4-methylphenol],176 °C
19,CNCC(O)c1ccccc1 (stereo unspecified) [2-(Methylamino)-1-phenylethanol],75 °C
20,NCc1ccccn1 [2-(aminomethyl)pyridine],-20 °C
21,CC(C)(C)OC(=O)Nc1ccc(C#N)cn1 [2-(boc-amino)-5-cyanopyridine],173 °C
22,O=C(CBr)c1ccc2ccccc2c1 [2-(bromoacetyl)naphthalene],83 °C
23,O=C(CBr)c1cccs1 [2-(bromoacetyl)thiophene],31 °C
24,O=C(O)c1ccccc1N=Nc1ccc(O)cc1 [2-(p-hydroxyphenylazo)benzoic acid],206 °C
